Laboratory results from patent US20220354119A1, “COMPOSITION OF A RHEOLOGY MODIFIER AND DIHALOHYDANTOIN” (Rohm and Haas Company, priority 2019, published 2022).
“Also recorded” adds a separate entry of the source. Counter-ions that a name gives are not always drawn.

Tested on: pool of 6 different Gram negative and Gram positive bacterial strains
Assay: Bacterial challenge test (TAUNOVATE III High Throughput testing system, MPN)
Format: cell-based
Details: 300 ppm biocide in HEUR; 30° C., repeated challenges
Protocol: Efficacy of all biocides were determined as described for 1-bromo-3-chloro-5,5-dimethylhydantion. The only difference was the concentration of the biocide, which is shown as a range in Table 1.
1-Bromo-3-chloro-5,5-dimethylhydantoin (0.5% aqueous solution) was prepared by dispersing Chlorox Pool and Spa (0.25 g in 49.75 g water). Unpreserved RM-2020E thickeners were dosed with biocide and challenge tested with bacteria using the TAUNOVATE℠ III High Throughput testing system. In general, the tested biocides were calibrated for density and prepared at levels 10× higher than the target concentrations using a robotic system. For example, to target 15 ppm and 40 ppm concentrations of 1-bromo-3-chloro-5,5-dimethylhydantoin respectively, 150 ppm and 400 ppm concentrations of 1-bromo-3-chloro-5,5-dimethylhydantoin were prepared by the automated system. […]
The inoculum was prepared by making a 1:1 pool of overnight cultures of 6 different Gram negative and Gram positive bacterial strains, and then diluted 1:20 with tryptic soy broth. […] Three additional challenges were performed 7 d apart with fresh bacterial cultures and growth recovery was assessed 1 and 7 d after inoculation. […]
(TSB) with indicator. […] The MPN was calculated to determine the relative growth scale rating, which is a measure of the passing or failure of the sample for growth. […]

| Molecule | Challenge Test |
| --- | --- |
| CCCCCCCCCCCCNC(=N)N [Dodecylguanidine Hydrochloride] | Fail (The pass/fail criterion for biocide efficacy was determined by the formation of less than 1×10^4 colony forming units per mL (CFU/mL) of sample tested) |

Same assay, conditions: 400 ppm biocide in HEUR prepared with 10-15% surfactant; 30° C., repeated challenges

| Molecule | Challenge Test |
| --- | --- |
| CCCCCCCCCC[N+](C)(C)CCCCCCCCCC.[Cl-] [Didecyldimethylammonium chloride] | Fail (The pass/fail criterion for biocide efficacy was determined by the formation of less than 1×10^4 colony forming units per mL (CFU/mL) of sample tested) |

Tested on: not listed separately
Assay: Heat age stability of HEUR-biocide formulation (appearance after heat aging)
Format: physicochemical
Details: biocide admixed with HEUR rheology modifier (RM-2020E or RM-8W); oven 50° C. for 2 weeks
Protocol: A number of biocides were admixed with ACRYSOL™ RM-2020E Rheology Modifier (RM-2020E, A Trademark of The Dow Chemical Company or Its Affiliates) and ACRYSOL™ RM-8W (RM-8W). In addition to testing biocides admixed with RM-2020E or RM-8W as-delivered, acid was also added to the rheology modifiers to lower the pH to approximately 4.5. Samples prepared with the biocide didecyldimethylammonium chloride were only tested when RM-2020E and RM-8W were prepared with 10-15% surfactant in the composition. The compositions were heat-aged in an oven maintained at 50° C. for 2 weeks. Heating aging was also carried out for RM-2020E in the absence of any biocide. If the composition failed the heat aging test, it was not tested for efficacy.
All heat aged samples were compared against a reference HEUR (RM-2020E or
The pass/fail criterion for biocide efficacy was determined by the formation of less than 1×10^4 colony forming units per mL (CFU/mL) of sample tested.

| Molecule | Sample Appearance after Heat Age testing |
| --- | --- |
| CCCCCCCCCC[N+](C)(C)CCCCCCCCCC.[Cl-] [Didecyldimethylammonium chloride] | unchanged |
| [Na+].[O-][n+]1ccccc1[S-] [Sodium pyrithione] | Bright yellow |
| Oc1ccccc1-c1ccccc1 [o-phenylphenol] | White |
| C/C=C/C=C/C(=O)[O-].[K+] [Potassium sorbate] | Brown |
| Zinc pyrithione | White sediment |
| [Na+].[O-]c1ccccc1-c1ccccc1 [Sodium o-phenylphenolate] | White |
| CC1(C)C(=O)N(Cl)C(=O)N1Br [1-bromo-3-chloro-5,5-dimethylhydantoin] | non-degradative; also recorded: unchanged |
